Experimental data: patent US20110053982A1, “ETHER BENZYLIDENE PIPERIDINE 5-MEMBERED ARYL CARBOXAMIDE COMPOUNDS USEFUL AS FAAH INHIBITORS” (PFIZER INC., priority 2008, published 2011)

Tests used:
Human FAAH = target: T1, Human FAAH (Homo sapiens, UniProt O00519); test: FAAH assay, kinetic analysis of irreversible inhibition (kinact/Ki); type: biochemical; conditions: additional data table, unit inferred, read-out: hFAAH_Kinact/Ki
T1 construct: made in house
T1 sequence (O00519 32-579 limits assumed): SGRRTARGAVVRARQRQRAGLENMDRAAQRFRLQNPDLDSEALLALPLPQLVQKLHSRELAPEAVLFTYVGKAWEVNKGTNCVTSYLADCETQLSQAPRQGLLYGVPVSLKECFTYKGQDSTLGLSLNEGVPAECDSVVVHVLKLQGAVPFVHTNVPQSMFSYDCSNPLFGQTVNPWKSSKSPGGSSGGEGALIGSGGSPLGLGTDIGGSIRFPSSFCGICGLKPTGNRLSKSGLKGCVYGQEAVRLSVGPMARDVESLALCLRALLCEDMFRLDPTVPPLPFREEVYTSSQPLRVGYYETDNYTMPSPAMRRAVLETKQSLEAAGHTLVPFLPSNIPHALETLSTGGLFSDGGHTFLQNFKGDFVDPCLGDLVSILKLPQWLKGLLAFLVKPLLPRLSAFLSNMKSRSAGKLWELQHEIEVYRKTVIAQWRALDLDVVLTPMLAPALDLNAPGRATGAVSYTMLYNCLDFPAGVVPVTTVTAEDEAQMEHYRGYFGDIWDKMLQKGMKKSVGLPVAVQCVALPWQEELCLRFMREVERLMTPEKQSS
Protocol: A FAAH assay may be carried out in 384-well clear polystyrene plates in a total volume of 50 μl per well. All percents are by volume. To each well is placed the reaction mixture (40 μl) containing 1-4 nM FAAH, 50 mM NaPi, pH 7.4, 3 mM α-ketoglutarate, 0.15 mM NADH, 7.5 U/ml glutamate dehydrogenase, 2 mM ADP, 1 mM EDTA, and 0.1% Triton X-100 (The concentration shown for each component is the final concentration in the assay). To this mixture is added 5 μl of a compound of Examples 1 to 20 at various concentrations prepared in 50% DMSO (or 5 μl 50% DMSO for controls). This is immediately followed by the addition of 5 μl oleamide (500 μM) dissolved in […] and the reaction mixture is mixed for 1.5 min. The final concentrations of DMSO and EtOH in the assay are each 7.5%. The reactions is then incubated at 30° C. and the absorbance at 340 nm is collected over a period of 90 min with readings taken in 30-second intervals using SpectraMax Plus^384 Microplate Spectrophotometer (Molecular Devices, Sunnyvale, Calif.). Human FAAH used in the assay is prepared as described in the patent application WO 2006/067613. The purity of the enzyme used is preferably greater than 98% based on an analysis by SDS-polyacrylamide gel electrophoresis followed by Coomassie Blue staining.
Initial velocity data (V) is obtained from the slopes of the initial progressive curves. They are plotted as a function of substrate concentration and fit to the Michaelis-Menten equation (1) using Prism (GraphPad Software, Inc., San Diego, Calif.) software to obtain Km and Vmax values.
To obtain potencies of irreversible inhibitors, progressive curves consistent with first order inhibition kinetics (two-step irreversible inhibition mechanism) are fit to equation (2) by nonlinear least squares regressions to determine kobs values at each inhibitor concentration, where [P]t is the absorbance at time t, V0 is a constant related to the steady state rate of the uninhibited reaction, and kobs is the first order rate constant for enzyme inactivation. The inhibitor dissociation constant (Ki) and the first order rate
constant of enzyme inactivation at infinite inhibitor concentration (kinact) are then obtained by fitting the kobs vs. [I] curves to equation (3).

rFAAH = target: T2, rFAAH (Rattus norvegicus, UniProt P97612); test: FAAH assay, rFAAH kobs/I; type: biochemical; conditions: additional data table, unit not given
T2 sequence (P97612 1-579): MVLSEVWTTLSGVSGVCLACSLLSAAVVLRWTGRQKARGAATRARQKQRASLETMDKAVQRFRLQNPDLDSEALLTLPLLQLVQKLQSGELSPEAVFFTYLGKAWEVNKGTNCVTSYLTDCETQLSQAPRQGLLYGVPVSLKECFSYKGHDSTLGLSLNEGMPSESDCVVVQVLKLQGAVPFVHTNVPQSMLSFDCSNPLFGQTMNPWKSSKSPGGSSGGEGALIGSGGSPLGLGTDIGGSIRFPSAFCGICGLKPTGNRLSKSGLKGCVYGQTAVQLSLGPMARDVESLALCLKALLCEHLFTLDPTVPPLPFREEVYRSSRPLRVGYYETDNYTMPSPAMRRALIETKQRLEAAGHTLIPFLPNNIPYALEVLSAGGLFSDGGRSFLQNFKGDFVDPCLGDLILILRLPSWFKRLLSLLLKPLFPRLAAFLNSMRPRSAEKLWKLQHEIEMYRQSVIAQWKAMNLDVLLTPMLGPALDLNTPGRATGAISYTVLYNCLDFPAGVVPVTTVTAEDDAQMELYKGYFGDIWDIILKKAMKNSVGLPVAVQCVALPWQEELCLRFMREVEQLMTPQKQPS

| kinact/KI (Human FAAH) | FAAH_KINACTR:rFAAH:kobs/I (rFAAH) | Compound |
| --- | --- | --- |
| 12100 M⁻¹ s⁻¹ | 9280 | Cc1noc(NC(=O)N2CCC(=Cc3cccc(OCCc4cccc(F)c4)c3)CC2)c1C [N-(3,4-dimethylisoxazol-5-yl)-4-{3-[2-(3-fluorophenyl)ethoxy]benzylidene}piperidine-1-carboxamide] |
| 13900 M⁻¹ s⁻¹ | 7840 | Cc1cccc(OCCOc2cccc(C=C3CCN(C(=O)Nc4onc(C)c4C)CC3)c2)c1 [N-(3,4-dimethylisoxazol-5-yl)-4-{3-[2-(3-methylphenoxy)ethoxy]benzylidene}piperidine-1-carboxamide] |
| 12800 M⁻¹ s⁻¹ | 7550 | Cc1noc(NC(=O)N2CCC(=Cc3cccc(OCCc4ccc(F)cc4)c3)CC2)c1C [N-(3,4-dimethylisoxazol-5-yl)-4-{3-[2-(4-fluorophenyl)ethoxy]benzylidene}piperidine-1-carboxamide] |
| 4920 M⁻¹ s⁻¹ | 1920 | Cc1ncsc1CCOc1cccc(C=C2CCN(C(=O)Nc3onc(C)c3C)CC2)c1 [N-(3,4-dimethylisoxazol-5-yl)-4-{3-[2-(4-methyl-1,3-thiazol-5-yl)ethoxy]benzylidene}piperidine-1-carboxamide] |
| 2150 M⁻¹ s⁻¹ | 208 | Cc1oncc1NC(=O)N1CCC(=Cc2cccc(OC(C)Cc3ccccc3)c2)CC1 (centres unmarked) [N-(5-methylisoxazol-4-yl)-4-[3-(1-methyl-2-phenylethoxy)benzylidene]piperidine-1-carboxamide] |
| 646 M⁻¹ s⁻¹ | <11.3 | Cc1oncc1NC(=O)N1CCC(=Cc2cccc(OCC3CCCCO3)c2)CC1 (centres unmarked) [N-(5-methylisoxazol-4-yl)-4-[3-(tetrahydro-2H-pyran-2-ylmethoxy)benzylidene]piperidine-1-carboxamide] |
| 10600 M⁻¹ s⁻¹ | 57.1 | Cc1cccc(OCCOc2cccc(C=C3CCN(C(=O)Nc4cnoc4C)CC3)c2)c1 [N-(5-methylisoxazol-4-yl)-4-{3-[2-(3-methylphenoxy)ethoxy]benzylidene}piperidine-1-carboxamide] |
| 903 M⁻¹ s⁻¹ | <11.9 | Cc1ncsc1CCOc1cccc(C=C2CCN(C(=O)Nc3cnoc3C)CC2)c1 [N-(5-methylisoxazol-4-yl)-4-{3-[2-(4-methyl-1,3-thiazol-5-yl)ethoxy]benzylidene}piperidine-1-carboxamide] |
| 384 M⁻¹ s⁻¹ | 18 | O=C(Nc1cnoc1)N1CCC(=Cc2cccc(OCC3CCCCO3)c2)CC1 (centres unmarked) [N-isoxazol-4-yl-4-[3-(tetrahydro-2H-pyran-2-ylmethoxy)benzylidene]piperidine-1-carboxamide] |
| 514 M⁻¹ s⁻¹ | <10.0 | Cc1ncsc1CCOc1cccc(C=C2CCN(C(=O)Nc3cnoc3)CC2)c1 [N-isoxazol-4-yl-4-{3-[2-(4-methyl-1,3-thiazol-5-yl)ethoxy]benzylidene}piperidine-1-carboxamide] |

| Compound | kinact/KI (Human FAAH) | FAAH_KINACTR:rFAAH:kobs/I (rFAAH) |
| --- | --- | --- |
| Cc1noc(NC(=O)N2CCC(=Cc3cccc(OCCCC(F)(F)F)c3)CC2)c1C [N-(3,4-dimethylisoxazol-5-yl)-4-[3-(4,4,4-trifluorobutoxy)benzylidene]piperidine-1-carboxamide] | 12900 M⁻¹ s⁻¹ | 1540 |
| Cc1oncc1NC(=O)N1CCC(=Cc2cccc(OCC(C)CC(F)(F)F)c2)CC1 (centres unmarked) [N-(5-methylisoxazol-4-yl)-4-[3-(4,4,4-trifluoro-2-methylbutoxy)benzylidene]piperidine-1-carboxamide] | 3200 M⁻¹ s⁻¹ | <11.5 |
| Cc1oncc1NC(=O)N1CCC(=Cc2cccc(OCCCC(F)(F)F)c2)CC1 [N-(5-methylisoxazol-4-yl)-4-[3-(4,4,4-trifluorobutoxy)benzylidene]piperidine-1-carboxamide] | 7410 M⁻¹ s⁻¹ | <10.0 |
